{"source": "patent US12247045B2", "about": "“MAP4K4 inhibitors” (Imperial College Innovations Limited, priority 2018, dated 2025)", "data": [{"target": "T1, human MAP4K4 kinase domain (Homo sapiens, UniProt O95819)", "T1 construct": "0.5 nM human MAP4K4 kinase domain (Invitrogen); purchased Invitrogen", "T1 sequence (O95819 25-289 limits assumed)": "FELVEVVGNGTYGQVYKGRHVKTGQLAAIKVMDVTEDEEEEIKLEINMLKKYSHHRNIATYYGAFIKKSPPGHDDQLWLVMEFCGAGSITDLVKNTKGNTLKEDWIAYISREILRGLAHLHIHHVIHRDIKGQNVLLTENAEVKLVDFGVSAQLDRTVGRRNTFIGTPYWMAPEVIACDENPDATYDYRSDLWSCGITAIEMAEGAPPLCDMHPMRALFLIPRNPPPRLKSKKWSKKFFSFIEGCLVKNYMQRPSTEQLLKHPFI", "test": "MAP4K4 kinase activity, CisBio HTRF Transcreener ADP assay", "format": "biochemical", "settings": "IC50 category; ATP at Km (10 μM), 0.5 nM kinase domain, 2 h; read-out: MAP4K4", "description": "Compounds of the present invention were screened for their inhibitory activity against MAP4K4, versus selected off-target hits found with early members of this chemical series. MAP4K4 kinase activity was monitored using the CisBio HTRF Transcreener ADP assay, a competitive immunoassay with a reproducible Z′>0.6. In the detection step, endogenous ADP and d2-labeled ADP compete for binding an anti-ADP monoclonal antibody labelled with Eu^3+ cryptate. A ratiometric fluorescent read-out is used at 665 and 620 nm. Reactions were performed in the presence of 1% DMSO with ATP added at Km (10 μM), 0.5 nM human MAP4K4 kinase domain (Invitrogen), 1 μM biotin-myelin basic protein as substrate (Invitrogen), and extension of reaction time to 2 h. Assays were run in Greiner low volume plates with a final reaction volume of 10 μl. The MAP4K4 inhibition data are provided in Table 41 below for selected compounds of the present invention. The data has been categorised based on the IC50 value of the compound as “A”, “B” or “C”. IC50: A≤100 nM; 100 nM<B≤1 μM; 1 μM<C; nd=not determined.", "units": {"IC50": "nM"}, "values": [{"smiles": "COCCOc1ccc(-c2cn(-c3cncc(F)c3)c3nc[nH]c(=O)c23)cc1", "note": "[Ex-85]", "IC50": "≤ 100"}, {"smiles": "COc1cc(-c2cn(-c3ccccc3)c3c(=O)[nH]cnc23)ccn1", "note": "[Ex-127]", "IC50": "100 to 1000"}, {"smiles": "O=C(C1CC1)N1CC(n2cc(-c3cn(-c4cccnc4)c4nc[nH]c(=O)c34)cn2)C1", "note": "[Ex-36]", "IC50": "100 to 1000"}, {"smiles": "COc1cnc(-c2cn(-c3ccccc3)c3nc[nH]c(=O)c23)cn1", "note": "[Ex-107]", "IC50": "100 to 1000"}, {"smiles": "O=c1[nH]cnc2c(-c3ccc4[nH]cnc4c3)cn(-c3ccccc3)c12", "note": "[Ex-118]", "IC50": "100 to 1000"}, {"smiles": "CC(C)(O)CCOc1ccc(-c2cn(-c3cncc(F)c3)c3nc[nH]c(=O)c23)cc1", "note": "[Ex-84]", "IC50": "100 to 1000"}, {"smiles": "CN(C)CCCOc1ccc(-c2cn(-c3cccnc3)c3nc[nH]c(=O)c23)cc1", "note": "[Ex-33]", "IC50": "≤ 100"}, {"smiles": "COc1ccc(-c2cn(-c3ccccc3)c3nc[nH]c(=O)c23)nn1", "note": "[Ex-104, 5-(6-Methoxy-pyridazin-3-yl)-7-phenyl-3,7-dihydro-pyrrolo[2,3-d]pyrimidin-4-one]", "IC50": "> 1000"}, {"smiles": "Cn1cc(-c2cn(-c3ccccc3)c3nc[nH]c(=O)c23)cn1", "note": "[Ex-24]", "IC50": "≤ 100"}, {"smiles": "COCCn1cc(-c2cn(-c3ccncc3)c3nc[nH]c(=O)c23)cn1", "note": "[Ex-63]", "IC50": "100 to 1000"}, {"smiles": "CC(=O)N1CC(n2cc(-c3cn(-c4ccncc4)c4nc[nH]c(=O)c34)cn2)C1", "note": "[Ex-12]", "IC50": "100 to 1000"}, {"smiles": "O=c1[nH]cnc2c(-c3ccc4cn[nH]c4c3)cn(-c3ccccc3)c12", "note": "[Ex-139, 7-(1H-Indazol-6-yl)-5-phenyl-3,5-dihydro-pyrrolo[3,2-d]pyrimidin-4-one]", "IC50": "100 to 1000"}, {"smiles": "O=c1[nH]cnc2c1c(-c1ccc(O[C@@H]3CO[C@@H]4[C@H]3OC[C@@H]4O)cc1)cn2-c1cccnc1", "note": "[Ex-80]", "IC50": "≤ 100"}, {"smiles": "O=c1[nH]cnc2c1c(-c1cnn(CCCO)c1)cn2-c1ccccc1", "note": "[Ex-113, 5-[1-(3-Hydroxy-propyl)-1H-pyrazol-4-yl]-7-phenyl-3,7-dihydro-pyrrolo[2,3-d]pyrimidin-4-one]", "IC50": "≤ 100"}, {"smiles": "Nc1ncccc1-c1cn(-c2ccccc2)c2c(=O)[nH]cnc12", "note": "[Ex-126]", "IC50": "> 1000"}, {"smiles": "O=c1[nH]cnc2c1c(-c1cnn(CCO)c1)cn2-c1ccc(F)cc1", "note": "[Ex-55, 7-(4-fluorophenyl)-5-(1-(2-hydroxyethyl)-1H-pyrazol-4-yl)-3,7-dihydro-4H-pyrrolo[2,3-d]pyrimidin-4-one]", "IC50": "100 to 1000"}, {"smiles": "CC(C)(O)CCOc1ccc(-c2cn(-c3ccc(N)nc3)c3nc[nH]c(=O)c23)cc1", "note": "[Ex-96, 7-(6-aminopyridin-3-yl)-5-(4-(3-hydroxy-3-methylbutoxy)phenyl)-3,7-dihydro-4H-pyrrolo[2,3-d]pyrimidin-4-one]", "IC50": "≤ 100"}, {"smiles": "COCCOc1ccc(-c2cn(-c3ccncc3)c3nc[nH]c(=O)c23)cn1", "note": "[Ex-13]", "IC50": "≤ 100"}, {"smiles": "O=c1cc(-c2cn(-c3ccccc3)c3c(=O)[nH]cnc23)cc[nH]1", "note": "[Ex-128]", "IC50": "100 to 1000"}, {"smiles": "CC(C)(O)COc1ccc(-c2cn(-c3ccccc3)c3nc[nH]c(=O)c23)cn1", "note": "[Ex-46]", "IC50": "≤ 100"}, {"smiles": "COCCOc1ccc(-c2cn(-c3cccnc3)c3ncn(COP(=O)(O)O)c(=O)c23)cc1", "note": "[Ex-103]", "IC50": "> 1000"}, {"smiles": "COCCn1cc(-c2cn(-c3ccccc3)c3nc[nH]c(=O)c23)cn1", "note": "[Ex-62]", "IC50": "≤ 100"}, {"smiles": "COCCNc1ccc(-c2cn(-c3ccccc3)c3nc[nH]c(=O)c23)cn1", "note": "[Ex-38]", "IC50": "≤ 100"}, {"smiles": "COCCNc1ccc(-c2cn(-c3ccncc3)c3nc[nH]c(=O)c23)cn1", "note": "[Ex-14]", "IC50": "≤ 100"}, {"smiles": "CNc1ccc(-c2cn(-c3ccccc3)c3c(=O)[nH]cnc23)cn1", "note": "[Ex-134]", "IC50": "> 1000"}, {"smiles": "Cc1cc(-c2cn(-c3ccccc3)c3c(=O)[nH]cnc23)ccn1", "note": "[Ex-130]", "IC50": "100 to 1000"}, {"smiles": "O=c1[nH]cnc2c1c(-c1ccc(OCC3(CO)COC3)cc1)cn2-c1cccnc1", "note": "[Ex-79]", "IC50": "≤ 100"}, {"smiles": "O=c1[nH]cnc2c1c(-c1cnn(C3CNC3)c1)cn2-c1ccccc1", "note": "[Ex-108, 5-(1-Azetidin-3-yl-1H-pyrazol-4-yl)-7-phenyl-3,7-dihydro-pyrrolo[2,3-d]pyrimidin-4-one]", "IC50": "100 to 1000"}, {"smiles": "Cc1ccc(-c2cn(-c3ccccc3)c3c(=O)[nH]cnc23)cn1", "note": "[Ex-131]", "IC50": "> 1000"}, {"smiles": "CC(=O)Nc1ccc(-c2cn(-c3ccccc3)c3nc[nH]c(=O)c23)cn1", "note": "[Ex-6]", "IC50": "≤ 100"}, {"smiles": "COc1ccc(-c2cn(-c3ccccc3)c3c(=O)[nH]cnc23)cn1", "note": "[Ex-132]", "IC50": "100 to 1000"}, {"smiles": "O=c1[nH]cnc2c1c(-c1cnc(N3CC(O)C3)nc1)cn2-c1ccccc1", "note": "[Ex-50]", "IC50": "100 to 1000"}, {"smiles": "O=c1[nH]cnc2c1c(-c1cnn(CCO)c1)cn2-c1cccc(F)c1", "note": "[Ex-59]", "IC50": "≤ 100"}, {"smiles": "COC(COc1ccc(-c2cn(-c3cccnc3)c3nc[nH]c(=O)c23)cc1)CN1CCOCC1", "note": "(stereo not shown) [Ex-34]", "IC50": "≤ 100"}, {"smiles": "CNCCC(=O)Nc1ccc(-c2cn(-c3ccncc3)c3nc[nH]c(=O)c23)cc1", "note": "[Ex-10]", "IC50": "100 to 1000"}, {"smiles": "CC(C)(O)CCOc1ccc(-c2cn(-c3ccncc3)c3nc[nH]c(=O)c23)cc1", "note": "[Ex-69]", "IC50": "≤ 100"}, {"smiles": "COc1ccc(-c2cn(-c3ccccc3)c3nc[nH]c(=O)c23)cn1", "note": "[Ex-18]", "IC50": "≤ 100"}, {"smiles": "O=c1[nH]cnc2c1c(-c1ccc(NCCO)nc1)cn2-c1ccccc1", "note": "[Ex-48, 5-[6-(2-Hydroxy-ethylamino)-pyridin-3-yl]-7-phenyl-3,7-dihydro-pyrrolo[2,3-d]pyrimidin-4-one]", "IC50": "≤ 100"}, {"smiles": "CC(C)(O)CCOc1ccc(-c2cn(-c3cccnc3)c3nc[nH]c(=O)c23)c(F)c1", "note": "[Ex-72]", "IC50": "≤ 100"}, {"smiles": "CC(C)(O)CCOc1ccc(-n2cc(-c3cccnc3)c3nc[nH]c(=O)c32)cc1", "note": "[Ex-125, 5-(4-(3-hydroxy-3-methylbutoxy)phenyl)-7-(pyridin-3-yl)-3,5-dihydro-4H-pyrrolo[3,2-d]pyrimidin-4-one]", "IC50": "≤ 100"}, {"smiles": "COCCNc1ccc(-c2cn(-c3cccc(F)c3)c3nc[nH]c(=O)c23)cn1", "note": "[Ex-30]", "IC50": "≤ 100"}, {"smiles": "Cn1cnc2cccc(-c3cn(-c4ccccc4)c4c(=O)[nH]cnc34)c21", "note": "[Ex-129]", "IC50": "> 1000"}, {"smiles": "COCCOc1ccc(-c2cn(-c3cccnc3)c3cc[nH]c(=O)c23)cc1", "note": "[Ex-140, 3-[4-(2-Methoxy-ethoxy)-phenyl]-1-pyridin-3-yl-1,5-dihydro-pyrrolo[3,2-c]pyridin-4-one]", "IC50": "≤ 100"}, {"smiles": "N#Cc1cc(-c2cn(-c3ccccc3)c3nc[nH]c(=O)c23)cnc1N1CC[C@@H](O)C1", "note": "[Ex-40]", "IC50": "≤ 100"}, {"smiles": "O=c1[nH]cnc2c(-c3ccccc3)cn(-c3cncc(F)c3)c12", "note": "[Ex-44]", "IC50": "≤ 100"}, {"smiles": "O=c1[nH]cnc2c1c(-c1ccc(OCC3(CO)COC3)cc1)cn2-c1ccncc1", "note": "[Ex-76]", "IC50": "≤ 100"}, {"smiles": "O=c1[nH]cnc2c1c(-c1ccc(OC(F)(F)CO)cc1)cn2-c1cccnc1", "note": "[Ex-77]", "IC50": "≤ 100"}, {"smiles": "COCCNc1ncc(-c2cn(-c3cccc(F)c3)c3nc[nH]c(=O)c23)cn1", "note": "[Ex-31]", "IC50": "≤ 100"}, {"smiles": "COCCNc1ccc(-c2cn(-c3cccnc3)c3nc[nH]c(=O)c23)cn1", "note": "[Ex-39]", "IC50": "100 to 1000"}, {"smiles": "CC(=O)N1CC(n2cc(-c3cn(-c4cccc(F)c4)c4nc[nH]c(=O)c34)cn2)C1", "note": "[Ex-11]", "IC50": "≤ 100"}, {"smiles": "O=c1[nH]cnc2c1c(-c1ccncc1F)cn2-c1ccccc1", "note": "[Ex-61]", "IC50": "100 to 1000"}, {"smiles": "COCCCn1cc(-c2cn(-c3ccccc3)c3nc[nH]c(=O)c23)cn1", "note": "[Ex-64]", "IC50": "≤ 100"}, {"smiles": "O=c1[nH]cnc2c1c(-c1cnc(NCCO)nc1)cn2-c1cccnc1", "note": "[Ex-45]", "IC50": "100 to 1000"}, {"smiles": "COCCn1cc(-c2cn(-c3cccc(F)c3)c3nc[nH]c(=O)c23)cn1", "note": "[Ex-20]", "IC50": "≤ 100"}, {"smiles": "O=c1[nH]cnc2c1c(-c1ccc(OCCC3(O)CC3)cc1)cn2-c1cccnc1", "note": "[Ex-70]", "IC50": "≤ 100"}]}]}
